Data from patent US11051515B2, “3-acyl-benzamides and their use as herbicides” (Bayer Aktiengesellschaft, priority 2017, dated 2021).

Experiments:
[1] = test system: SETVI; test: Post-emergence action against SETVI; format: in vivo, Setaria viridis; details: Setaria viridis, 504 h; post-emergence, dosage 80 g/ha, visual assessment about 3 weeks after treatment vs untreated controls; read-out: Post-emergence action against SETVI (herbicidal action in percent)
Outline: (§1)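 Weeds grown in sandy loam in greenhouse, treated at one-leaf stage (2–3 weeks after sowing) with WP or EC formulations sprayed as aqueous suspension/emulsion at 600 to […] water with 0.2% wetting agent. Visual rating after about 3 weeks versus untreated controls, as % herbicidal action (100% = plants dead, 0% = like control).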

[2] = test system: ABUTH; test: Pre-emergence action against ABUTH; format: in vivo, Abutilon theophrasti; details: Abutilon theophrasti, 504 h; pre-emergence, dosage 320 g/ha, scored visually after 3 weeks vs untreated controls; read-out: Pre-emergence action against ABUTH (herbicidal activity)
Outline: (§2)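 Seeds sown in sandy loam in wood-fiber pots and covered with soil. Greenhouse growth; visual damage scored after 3 weeks versus untreated controls (100% = dead, 0% = like control).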

[3] = test system: CYPES; test: Pre-emergence action against CYPES; format: in vivo, Cyperus esculentus; details: Cyperus esculentus, 504 h; pre-emergence, dosage 320 g/ha, scored visually after 3 weeks vs untreated controls; read-out: Pre-emergence action against CYPES (herbicidal activity)
Outline: as §2

[4] = test system: STEME; test: Post-emergence action against STEME; format: in vivo, Stellaria media; details: Stellaria media, 504 h; post-emergence, dosage 80 g/ha
Outline: as §1

[5] = test system: AMARE; test: Pre-emergence action against AMARE; format: in vivo, Amaranthus retroflexus; details: Amaranthus retroflexus, 504 h; pre-emergence, dosage 320 g/ha, scored visually after 3 weeks vs untreated controls; read-out: Pre-emergence action against AMARE (herbicidal activity)
Outline: as §2

[6] = test system: ECHCG; test: Pre-emergence action against ECHCG; format: in vivo, Echinochloa crus-galli; details: Echinochloa crus-galli, 504 h; pre-emergence, dosage 320 g/ha, scored visually after 3 weeks vs untreated controls; read-out: Pre-emergence action against ECHCG (herbicidal activity)
Outline: as §2

[7] = test system: CYPES; test: Post-emergence action against CYPES; format: in vivo, Cyperus esculentus; details: Cyperus esculentus, 504 h; post-emergence, dosage 80 g/ha, visual assessment about 3 weeks after treatment vs untreated controls; read-out: Post-emergence action against CYPES (herbicidal action in percent)
Outline: as §1

[8] = test system: SETVI; test: Pre-emergence action against SETVI; format: in vivo, Setaria viridis; details: Setaria viridis, 504 h; pre-emergence, dosage 320 g/ha, scored visually after 3 weeks vs untreated controls; read-out: SETVI (Table B8, pre-emergence herbicidal activity)
Outline: as §2

[9] = test system: VIOTR; test: Pre-emergence action against VIOTR; format: in vivo, Viola tricolor; details: Viola tricolor, 504 h; Dosage 320 g/ha, pre-emergence
Outline: as §2

[10] = test system: VIOTR; test: Post-emergence action against VIOTR; format: in vivo, Viola tricolor; details: Viola tricolor, 504 h; post-emergence, dosage 80 g/ha
Outline: as §1

[11] = test system: AMARE; test: Post-emergence action against AMARE; format: in vivo, Amaranthus retroflexus; details: Amaranthus retroflexus, 504 h; post-emergence, dosage 80 g/ha, visual assessment about 3 weeks after treatment vs untreated controls; read-out: Post-emergence action against AMARE (herbicidal action in percent)
Outline: as §1

[12] = test system: STEME; test: Pre-emergence action against STEME; format: in vivo, Stellaria media; details: Stellaria media, 504 h; Dosage 320 g/ha, pre-emergence
Outline: as §2

[13] = test system: PHBPU; test: Post-emergence action against PHBPU; format: in vivo, Pharbitis purpurea; details: Ipomoea purpurea, 504 h; post-emergence, dosage 80 g/ha
Outline: as §1

[14] = test system: LOLRI; test: Post-emergence action against LOLRI; format: in vivo, Lolium rigidum; details: Lolium rigidum, 504 h, dosage 80 g/ha, visual assessment about 3 weeks after treatment vs untreated controls, read-out: Post-emergence action against LOLRI (herbicidal action in percent)
Description: Seeds of monocotyledonous and dicotyledonous weed and crop plants are laid out in sandy loam soil in wood-fiber pots, covered with soil and cultivated in a greenhouse under good growth conditions. 2 to 3 weeks after sowing, the test plants are treated at the one-leaf stage. The compounds of the invention, formulated in the form of wettable powders (WP) or as emulsion concentrates (EC), are then sprayed onto the green parts of the plants in the form of an aqueous suspension or emulsion at a water application rate equating to […], with addition of 0.2% wetting agent. After the test plants have been left to stand in the greenhouse under optimal growth conditions for about 3 weeks, the action of the preparations is assessed visually in comparison to untreated controls (herbicidal action in percent (%): 100% activity=the plants have died, 0% activity=like control plants). […] At the same time, inventive compounds leave Gramineae crops such as barley, wheat, rye, millet/Sorghum, corn or rice virtually undamaged when applied post-emergence, even at high active ingredient dosages. In addition, some substances are also harmless to dicotyledonous crops such as soya, cotton, oilseed rape, sugar beet or potatoes. Some of the compounds according to the invention have high selectivity and are therefore suitable for controlling unwanted vegetation in agricultural crops by the post-emergence method. The data of Tables B18 to B34 below illustrate, in an exemplary manner, the […] herbicidal action of the compounds according to the invention, the herbicidal activity being stated in percent.

[15] = test system: MATIN; test: Post-emergence action against MATIN; format: in vivo, Matricaria inodora; details: Tripleurospermum inodorum, 504 h; post-emergence, dosage 80 g/ha, visual assessment about 3 weeks after treatment vs untreated controls; read-out: Post-emergence action against MATIN (herbicidal action in percent)
Outline: as §1

[16] = test system: VERPE; test: Pre-emergence action against VERPE; format: in vivo, Veronica persica; details: Veronica persica, 504 h; Dosage 320 g/ha, pre-emergence
Outline: as §2

[17] = test system: VERPE; test: Post-emergence action against VERPE; format: in vivo, Veronica persica; details: Veronica persica, 504 h, dosage 80 g/ha
Outline: as §1

[18] = test system: MATIN; test: Pre-emergence action against MATIN; format: in vivo, Matricaria inodora; details: Tripleurospermum inodorum, 504 h; Dosage 320 g/ha, pre-emergence
Outline: as §2

[19] = test system: ECHCG; test: Post-emergence action against ECHCG; format: in vivo, Echinochloa crus-galli; details: Echinochloa crus-galli, 504 h; post-emergence, dosage 80 g/ha, visual assessment about 3 weeks after treatment vs untreated controls; read-out: Post-emergence action against ECHCG (herbicidal action in percent)
Outline: as §1

[20] = test system: POLCO; test: Pre-emergence action against POLCO; format: in vivo, Polygonum convolvulus; details: Fallopia convolvulus, 504 h; Dosage 320 g/ha, pre-emergence
Outline: as §2

[21] = test system: ALOMY; test: Pre-emergence action against ALOMY; format: in vivo, Alopecurus myosuroides; details: Alopecurus myosuroides, 504 h; dosage 320 g/ha; pre-emergence; scored visually after 3 weeks vs untreated controls; 100% = plants have died, 0% = like control plants; read-out: Pre-emergence action against ALOMY (herbicidal activity in percent)
Outline: as §2

[22] = test system: LOLRI; test: Pre-emergence action against LOLRI; format: in vivo, Lolium rigidum; details: Lolium rigidum, 504 h, dosage 320 g/ha, scored visually after 3 weeks vs untreated controls, read-out: Pre-emergence action against LOLRI (herbicidal activity)
Outline: as §2

[23] = test system: ABUTH; test: Post-emergence action against ABUTH; format: in vivo, Abutilon theophrasti; details: Abutilon theophrasti, 504 h; post-emergence, dosage 80 g/ha, visual assessment about 3 weeks after treatment vs untreated controls; read-out: Post-emergence action against ABUTH (herbicidal action in percent)
Outline: as §1

[24] = test system: AVEFA; test: Pre-emergence action against AVEFA; format: in vivo, Avena fatua; details: Avena fatua, 504 h, dosage 320 g/ha, scored visually after 3 weeks vs untreated controls, read-out: Pre-emergence action against AVEFA (herbicidal activity)
Outline: as §2

CC(C)C(=O)c1c(C(F)(F)F)ccc(C(=O)Nc2nnnn2C)c1Cl [1-140] showed a pest or weed control at 80 g/ha [1] of 100%, a pest or weed control at 320 g/ha [2] of 100% and a pest or weed control at 320 g/ha [3] of 90%. For the same molecule, the pest or weed control at 80 g/ha [4] was 100%, the pest or weed control at 320 g/ha [5] was 100% and the pest or weed control at 320 g/ha [6] was 100%. The pest or weed control at 80 g/ha [7] was 90%, the pest or weed control at 320 g/ha [8] was 100% and the pest or weed control at 320 g/ha [9] was 100%. For the same molecule, the pest or weed control at 80 g/ha [10] was 100%, the pest or weed control at 80 g/ha [11] was 90% and the pest or weed control at 320 g/ha [12] was 100%. The pest or weed control at 80 g/ha [13] was 90%, the pest or weed control at 80 g/ha [14] was 80% and the pest or weed control at 80 g/ha [15] was 100%. The pest or weed control at 320 g/ha [16] was 100%, the pest or weed control at 80 g/ha [17] was 80% and the pest or weed control at 320 g/ha [18] was 100%. It also gave a pest or weed control at 80 g/ha [19] of 100%, a pest or weed control at 320 g/ha [20] of 80% and a pest or weed control at 320 g/ha [21] of 100%. It also gave a pest or weed control at 320 g/ha [22] of 100%, a pest or weed control at 80 g/ha [23] of 100% and a pest or weed control at 320 g/ha [24] of 80%.
